In patent publication US9212204B2, “Treatment of rett syndrome using glycyl-L-2-methylprolyl-L-glutamic acid” (priority 2011, dated 2015):

Tests used:
[1] = test system: cortical neurons injured with okadaic acid; assay: Okadaic acid injury of cortical cultures, MTT survival; assay type: cell-based, rat; details: 10 μM, 24 hours incubation, MTT-assay
Description: One cortical hemisphere from a postnatal day 1 rat was used and collected into 4 ml of DMEM. Trituration was performed using a 5 ml glass pipette and an 18-gauge needle. The cell suspension was sieved through a 100 μm cell strainer and washed in 50 ml DMEM (centrifugation for 5 min at 250 g). The sediment was resuspended in 20 ml DMEM+10% fetal calf serum. The suspension was added into two […] flasks (10 ml per flask) and cultivated at 37° C. in the presence of 10% CO2 followed by a change of the medium twice a week. When cells reached confluence, they were washed three times with PBS, adjusted to Neurobasal/B27 and incubated for another 3 days. This supernatant was frozen for transient storage at −80° C. […]
The cells were triturated once with a glass Pasteur pipette in 1 ml of Neurobasal/B27 medium and subsequently twice by using a 1 ml insulin syringe with a 22 gauge needle. […] Cells were counted and adjusted to 50,000 cells per 60 μl. […]
To cause toxic injury to neurons, we exposed neurons to 1:100 parts of okadaic acid at concentrations of 30 nM or 100 nM and 0.5 mM 3-nitropropionic acid (for cerebellar microexplants only). […] The survival rate was determined by a colorimetric end-point MTT-assay at 595 nm in a multi-well plate reader. For the cerebellar microexplants four windows (field of 0.65 mm^2) with highest cell density were chosen and cells displaying neurite outgrowth were counted.

[2] = Pharmacokinetics after intravenous bolus injection; assay type: in vivo, rat; details: 30 mg/kg single i.v. bolus; rat
Description: Adult male Wistar rats weighing between 180 and 240 g were used to determine the pharmacokinetics of GPE and […]. To facilitate intravenous bolus injections and blood sampling, all rats were surgically implanted with an indwelling jugular venous cannula under halothane anesthesia three days before the experiment. Groups of six rats were given a single intravenous bolus injection of either 30 mg/kg GPE or 10 mg/kg […] dissolved in 0.1M succinate buffer (pH 6.5). […] The samples were centrifuged at 3000 g for 15 min at 4° C. and the plasma removed and stored at -80° C. until extraction and assay by either radioimmunoassay (“RIA”) or reverse phase HPLC. The RIA and HPLC methods used were conventional. […] The k and half-life (t1/2) were calculated from the slope of the linear regression line in the elimination phase of the semi-logarithmic plot of plasma concentration versus time as: Log. C=-kt/2.3+log C0. Results were expressed as mean±standard error.

[3] = Degradation of GPE in vivo and in vitro
[4] = test system: MeCP2 knock-out mice; details: U.S. Publication No. 2009/0099077; cited from earlier work
[5] = test system: wild type young mice; details: Tropea et al., 2006; cited from earlier work

NCC(=O)N1CCC[C@H]1C(=O)N[C@@H](CCC(=O)O)C(=O)O [GPE, glycyl-L-prolyl-L-glutamic acid]
neuroprotection [1]: 64%
first order rate constant [2]: 0.15 ± 0.014 min⁻¹
degradation [3]: rapidly degraded
effect on life span [4]: prolong life
effect on neuronal function [4]: increase neuronal function
OD plasticity [5]: reduce
